From US11524966B1 (Valo Early Discovery, Inc., priority 2017, dated 2022) come the findings set out here.

The target of the first assay is T1, USP28 (His-tagged USP28-FL-mammalian) (Homo sapiens, UniProt Q96RU2).
T1 construct: Expression of USP28 (1-1077)-TEV-6*His (pTT5 vector); made in house; host or cells: Expi293f cells (pTT5 vector)
T1 sequence (Q96RU2 1-1077): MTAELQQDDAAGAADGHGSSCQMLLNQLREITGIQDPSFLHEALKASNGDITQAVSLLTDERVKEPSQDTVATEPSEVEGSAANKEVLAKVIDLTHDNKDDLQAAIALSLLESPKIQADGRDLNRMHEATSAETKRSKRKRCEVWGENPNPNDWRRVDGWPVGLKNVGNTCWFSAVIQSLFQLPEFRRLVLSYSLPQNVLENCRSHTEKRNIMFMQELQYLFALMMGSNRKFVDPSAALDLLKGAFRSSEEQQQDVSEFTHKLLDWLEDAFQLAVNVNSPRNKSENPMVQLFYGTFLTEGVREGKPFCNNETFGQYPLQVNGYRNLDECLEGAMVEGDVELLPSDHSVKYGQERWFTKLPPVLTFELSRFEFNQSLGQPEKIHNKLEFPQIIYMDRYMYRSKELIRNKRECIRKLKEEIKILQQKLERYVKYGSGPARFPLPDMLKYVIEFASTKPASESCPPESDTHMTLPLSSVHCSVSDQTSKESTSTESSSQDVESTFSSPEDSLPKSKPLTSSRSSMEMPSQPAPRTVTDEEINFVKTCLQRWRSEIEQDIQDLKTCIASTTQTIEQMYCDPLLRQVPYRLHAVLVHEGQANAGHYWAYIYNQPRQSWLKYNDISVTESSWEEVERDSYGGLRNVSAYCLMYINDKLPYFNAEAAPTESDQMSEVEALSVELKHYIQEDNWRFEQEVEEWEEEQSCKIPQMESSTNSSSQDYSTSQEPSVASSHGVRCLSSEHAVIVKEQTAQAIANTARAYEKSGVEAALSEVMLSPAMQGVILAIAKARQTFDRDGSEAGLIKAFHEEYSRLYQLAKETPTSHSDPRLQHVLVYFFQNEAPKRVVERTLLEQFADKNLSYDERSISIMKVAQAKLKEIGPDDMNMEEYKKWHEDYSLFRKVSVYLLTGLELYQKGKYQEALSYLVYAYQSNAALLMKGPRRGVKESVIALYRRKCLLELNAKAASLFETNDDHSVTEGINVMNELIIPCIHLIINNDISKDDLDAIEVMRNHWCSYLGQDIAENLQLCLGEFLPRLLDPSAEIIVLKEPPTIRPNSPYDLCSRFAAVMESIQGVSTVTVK
The assay is described as follows: Ubiquitin-Rhodamine 110 Assay for USP28 Activity, Example A-1(a). The class given is biochemical. The settings on record: Ubiquitin-Rhodamine 110 assay, Example A-1(a); read-out: USP28 A-1(a) IC50 range. The gist of the method: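 Full-length His-tagged human USP28 (1-1077, Expi293f-expressed), […], with 25 nM Ub-Rh110 (<<Km) in pH 8.0 Tris buffer with BME, BGG, Triton X-100. 10-point dilutions (25 μM-1.3 nM), 45 min at room temperature, citric acid stop, fluorescence 485/535 nm; IC50 by 4-parameter fit.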
The term IC50 denotes the point on the concentration scale where inhibition reaches its midpoint. As to `Cc1ccc2c(N)c(C(=O)N[C@H]3COc4cc(N5CC6CNCC(C5)O6)cc(F)c4C3)sc2n1` [Example 10-6, N-((3R)-7-(9-oxa-3,7-diazabicyclo[3.3.1]nonan-3-yl)-5-fluorochroman-3-yl)-3-amino-6-methylthieno[2,3-b]pyridine-2-carboxamide], the IC50 lay in the range of 1 to 50 nM.
In the case of `CCn1ccc2cc(C(=O)N[C@@H]3CCc4cc(N5CC6CCC(C5)N6)ccc4C3)cnc21` (single isomer, unassigned) [Example 11-10], the IC50 was in the range of 50 to 200 nM.
As for `Cc1ccc2c(N)c(C(=O)N[C@H]3COc4cc(O[C@H]5COC6(CNC6)C5)ccc4C3)sc2n1` (single isomer, unassigned) [Example 9-2], the IC50 fell in the range of 1 to 50 nM.
As to `Cc1ccc2c(N)c(C(=O)N[C@H]3CCc4cc(N5CCN[C@H](CO)C5)ccc4C3)sc2n1` (single isomer, unassigned) [Example 7-8], the IC50 is 200 to 2000 nM.
Regarding `Cc1cc(C)c2c(N)c(C(=O)N[C@H]3COc4cc(N5CCNCC5)cc(F)c4C3)sc2n1` [Example 10-9, (R)-3-amino-N-(5-fluoro-7-(piperazin-1-yl)chroman-3-yl)-4,6-dimethylthieno[2,3-b]pyridine-2-carboxamide], the IC50 was 1 to 50 nM.
With `CO[C@H]1CN(c2cc(F)c3c(c2)OC[C@H](NC(=O)c2sc4nc(C)ccc4c2N)C3)C[C@@H]1N` (single isomer, unassigned) [Example 10-3], the IC50 lay within 1 to 50 nM.
As to `Cc1cnc2c(N)c(C(=O)N[C@H]3CCc4cc(N5CCNC[C@H](O)C5)ccc4C3)sc2n1` (single isomer, unassigned) [Example 7-6], the concentration for half-maximal inhibition (IC50) fell in the range of 200 to 2000 nM.
Regarding `CCn1ccc2cc(C(=O)N[C@H]3CCc4cc(N5CC6CCC(C5)N6)ccc4C3)cnc21` (single isomer, unassigned) [Example 11-9], the IC50 lay within 200 to 2000 nM.
Consider `Cc1ccc2c(N)c(C(=O)N[C@H]3COc4cc(O[C@@H]5COC6(CNC6)C5)ccc4C3)sc2n1` (single isomer, unassigned) [Example 9-1], for which the IC50 is 1 to 50 nM.
Consider `CCn1ccc2cc(C(=O)N[C@@H]3CCc4cc(N5CC6CCC(C5)N6)ccc4C3)nnc21` (single isomer, unassigned) [Example 11-23], for which the IC50 lay within 200 to 2000 nM.
Same read-out and setting: for `Cc1nc2sc(C(=O)N[C@@H]3CCc4cc(N5CC6CCC(C5)N6)ccc4C3)c(N)c2cc1F` (single isomer, unassigned) [Example 11-4] the value was 1 to 50 nM; for `Cc1ccc2c(N)c(C(=O)N[C@@H]3COc4cc(N5CCNCC5)ccc4[C@@H]3C)sc2n1` (single isomer, unassigned) [Example 11-18], greater than 2000 nM; for `Cc1ccc2c(N)c(C(=O)N[C@@H]3CCc4cc(N5CCN[C@H](CO)C5)ccc4C3)sc2n1` (single isomer, unassigned) [Example 7-10], 50 to 200 nM.
Turning to `CO[C@@H]1CN(c2cc(F)c3c(c2)OC[C@H](NC(=O)c2sc4nc(C)ccc4c2N)C3)C[C@H]1N` [Example 10-2, 3-amino-N-((R)-7-((3R,4R)-3-amino-4-methoxypyrrolidin-1-yl)-5-fluorochroman-3-yl)-6-methylthieno[2,3-b]pyridine-2-carboxamide], the IC50 was in the range of 1 to 50 nM.
On to `Cc1ccc2c(N)c(C(=O)N(C)[C@H]3COc4cc(N5CCNCC5)cc(F)c4C3)sc2n1` [Example 10-15, 3-amino-N-[(3R)-5-fluoro-7-(piperazin-1-yl)-3,4-dihydro-2H-1-benzopyran-3-yl)-N,6-dimethylthieno[2,3-b]pyridine-2-carboxamide], for which the IC50 is greater than 2000 nM.
As for `Cc1cnc2c(N)c(C(=O)N[C@@H]3CCc4cc(N5CC6CCC(C5)N6)cc(F)c4C3)sc2n1` (single isomer, unassigned) [Example 11-14], the IC50 lay in the range of 1 to 50 nM.
Still for that read-out and setting: for `Cc1cnc2c(N)c(C(=O)N[C@H]3COc4cc(N5CC6CNCC(C5)O6)cc(F)c4C3)sc2n1` [Example 10-12, N-((3R)-7-(9-oxa-3,7-diazabicyclo[3.3.1]nonan-3-yl)-5-fluorochroman-3-yl)-7-amino-3-methylthieno[2,3-b]pyrazine-6-carboxamide] the value was 1 to 50 nM; for `Cc1cnc2c(N)c(C(=O)N[C@@H]3CCc4cc(N5CCNC[C@H](O)C5)ccc4C3)sc2n1` (single isomer, unassigned) [Example 7-7], 200 to 2000 nM.

The same assay, now with this note: Ubiquitin-Rhodamine 110 assay, format Example A-1(a); read-out: USP28 A-1(a) IC50 range.
Turning to `Cc1ccc2c(N)c(C(=O)N[C@H]3COc4cc(N5CC6CCC(C5)N6)c(F)c(F)c4C3)sc2n1` [Example 13-3, N-((3R)-7-(3,8-diazabicyclo[3.2.1]octan-3-yl)-5,6-difluorochroman-3-yl)-3-amino-6-methylthieno[2,3-b]pyridine-2-carboxamide], the half-inhibitory concentration (IC50) lay in the range of 200 to 2000 nM.
In the case of `Cc1ccc2c(N)c(C(=O)N[C@@H]3CCc4cc(N5CCNCC5)cnc4C3)sc2n1` (single isomer, unassigned) [Example 15-1], the IC50 was greater than 2000 nM.
Turning to `Cc1ccc2c(N)c(C(=O)N[C@@H]3CCc4cc(N5C6CNCC5C6)ccc4C3)sc2n1` (single isomer, unassigned) [Example 11-36], the IC50 was 200 to 2000 nM.
With `Cc1ccc2c(N)c(C(=O)N[C@@H]3COc4cc(N5CC6CCC(C5)N6)c(F)c(F)c4C3)sc2n1` [Example 13-4, N-((3S)-7-(3,8-diazabicyclo[3.2.1]octan-3-yl)-5,6-difluorochroman-3-yl)-3-amino-6-methylthieno[2,3-b]pyridine-2-carboxamide], the IC50 lay in the range of 1 to 50 nM.
Consider `Cc1ccc2c(N)c(C(=O)N[C@@H]3CCc4c(F)c(N5CCNCC5)cc(F)c4C3)sc2n1` (single isomer, unassigned) [Example 22-2], for which the IC50 was 1 to 50 nM.
Turning to `Cc1nc2sc(C(=O)N[C@H]3CCc4cc(N5CC6CCC(C5)N6)ccc4C3)c(N)c2s1` (single isomer, unassigned) [Example 12-1], the IC50 was 200 to 2000 nM.
In the case of `CO[C@H]1CN(c2ccc3c(n2)CC[C@@H](NC(=O)c2sc4nc(C)ccc4c2N)C3)C[C@@H]1N` [Example 23-5, 3-amino-N-[(6R)-2-[(3S,4S)-3-amino-4-methoxypyrrolidin-1-yl]-5,6,7,8-tetrahydroquinolin-6-yl]-6-methylthieno[2,3-b]pyridine-2-carboxamide], the concentration for half-maximal inhibition (IC50) is 200 to 2000 nM.
As to `Cc1ccc2c(N)c(C(=O)N[C@H]3COc4nc(N5CCNCC5)ccc4C3)sc2n1` [Example 19, (R)-3-Amino-6-methyl-N-(7-(piperazin-1-yl)-3,4-dihydro-2H-pyrano[2,3-b]pyridin-3-yl)thieno[2,3-b]pyridine-2-carboxamide], the IC50 lay within 50 to 200 nM.
As for `Cc1ccc2c(N)c(C(=O)N[C@H]3COc4c(F)c(N5CC6CCC(C5)N6)cc(F)c4C3)sc2n1` (single isomer, unassigned) [Example 13-1], the IC50 was in the range of 1 to 50 nM.
On to `Cc1ccc2c(N)c(C(=O)N[C@H]3COc4cc(N5CCNCC5)ncc4C3)sc2n1` [Example 16, (R)-3-Amino-6-methyl-N-(7-(piperazin-1-yl)-3,4-dihydro-2H-pyrano[3,2-c]pyridin-3-yl)thieno[2,3-b]pyridine-2-carboxamide], for which the IC50 lay within 1 to 50 nM.
Turning to `Cc1ccc2c(N)c(C(=O)N[C@H]3CCc4c(F)c(N5CC6CNCC(C5)O6)cc(F)c4C3)sc2n1` (single isomer, unassigned) [Example 22-3], the half-inhibitory concentration (IC50) was in the range of 200 to 2000 nM.
Same read-out and setting: in the case of `Cc1ccc2c(N)c(C(=O)N[C@@H]3CCc4c(F)c(N5CC6CNCC(C5)O6)cc(F)c4C3)sc2n1` (single isomer, unassigned) [Example 22-4] it was 1 to 50 nM.
With `Cc1ccc2c(N)c(C(=O)N[C@H]3CCc4c(F)c(N5CCNCC5)cc(F)c4C3)sc2n1` (single isomer, unassigned) [Example 22-1], the IC50 is 200 to 2000 nM.
For `Cc1ccc2c(N)c(C(=O)N[C@@H]3COc4c(F)c(N5CC6CCC(C5)N6)cc(F)c4C3)sc2n1` (single isomer, unassigned) [Example 13-2], the IC50 is 200 to 2000 nM.
Still for that read-out and setting: for `Cc1ccc2c(N)c(C(=O)N[C@H]3COc4c(cnc(N5CC6CCC(C5)N6)c4F)C3)sc2n1` [Example 18, N-((3R)-7-(3,8-Diazabicyclo[3.2.1]octan-3-yl)-8-fluoro-3,4-dihydro-2H-pyrano[3,2-c]pyridin-3-yl)-3-amino-6-methylthieno[2,3-b]pyridine-2-carboxamide] the value was 1 to 50 nM.
